Assay [1] deals with MC-38. The assay is described as follows: Antitumor activity against mouse MC38 cells xenografted in C57BL/6 mouse assessed as inhibition of tumor growth at 30 mg/kg, po twice daily co-administered with anti-PD1-antibody at 5 mg/kg, ip twice weekly for 2 weeks. The format is functional, organism-based.
Assay [2] concerns MC-38. The assay is described as follows: Antitumor activity against mouse MC38 cells xenografted in C57BL/6 mouse assessed as increase in animal survival at 30 mg/kg, po twice daily co-administered with anti-PD1-antibody at 5 mg/kg, ip twice weekly for 2 weeks. The format is functional, organism-based.
Assay [3] has as its system 4T1. The assay can be described thus: Antitumor activity against mouse 4T1 cells xenografted in Balb/cj mouse assessed as inhibition of tumor growth at 30 mg/kg, po twice daily for 21 days relative to control. The format is functional. The following applies: 4T1, 504 h, time 21 day, read-out: TGI.
Assay [4] deals with 4T1. The assay can be described thus: Antitumor activity against mouse 4T1 cells xenografted in Balb/cj mouse assessed as inhibition of tumor growth at 30 mg/kg, po twice daily for 21 days in presence of 4-1BB monoclonal antibody relative to control. The format is functional. To be noted: 4T1, 504 h, time 21 day, read-out: TGI.
Assay [5] relates to 4T1. The assay is described as follows: Antitumor activity against mouse 4T1 cells xenografted in Balb/cj mouse assessed as inhibition of tumor growth at 30 mg/kg, po twice daily for 21 days in presence of OXO40 monoclonal antibody relative to control. The format is functional. The following applies: 4T1, 504 h, time 21 day, read-out: TGI.
The subject of assay [6] is CT26. The assay is described as follows: Antitumor activity against mouse CT26 cells xenografted in Balb/c mouse assessed as time of events at 30 mg/kg, po twice daily for 28 days. The format is functional. The following applies: time 28 day.
In assay [7] the test system is CT26. The assay is described as follows: Antitumor activity against mouse CT26 cells xenografted in Balb/c mouse assessed as tumor growth delay at 30 mg/kg, po twice daily for 28 days. The format is functional. To be noted: time 28 day.
In assay [8] the test system is CT26. The assay is described as follows: Antitumor activity against mouse CT26 cells xenografted in Balb/c mouse assessed as time of events at 30 mg/kg, po twice daily for 28 days in presence of ant-CTLA4 antibody. The format is functional. To be noted: time 28 day.
In assay [9] the test system is CT26. The assay is described as follows: Antitumor activity against mouse CT26 cells xenografted in Balb/c mouse assessed as tumor growth delay at 30 mg/kg, po twice daily for 28 days in presence of ant-CTLA4 antibody. The format is functional. To be noted: time 28 day.

Activity calls are given as the source filed them. The calls are words filed in the database; no cut-off is given here.

With `CC(C)c1cnc(-c2cc(Cl)ccc2F)cc1Nc1ccncc1C(=O)NC(CO)CO` [PF-06952229], the inhibition result in the assay on MC-38 [1] was “Active”. Also, the result in the assay with MC-38 [2] was Active. Further, the inhibition in vivo at 30 mg/kg in the assay with 4T1 [3] amounted to 18%; in the assay with 4T1 [4], 41%; in the assay on 4T1 [5], 29.5%. Besides, the Time worked out at 33.8 days in the assay with CT26 [6] and 59 days in the assay with CT26 [8]. For the same compound, the Activity with CT26 [7] is recorded as 18%; in the assay with CT26 [9] it was 106%.
